Assay results published in PubChem BioAssay AID2060494 (Molecular Pharmacology Branch, DTP, NCI, 2025).

System: 435261-313-R-J1-PDC complex spheroid viability
Assay: Anticancer human tumor 435261-313-R-J1-PDC patient-derived colon adenocarcinoma cell line growth inhibition [GQUAD]
Conditions: for IC50: curve of first compound; for viability, T/C: stronger effect = lower value
From the text: DNA G-quadruplex Stabilizer Agents in Combinations in Complex Spheroids
A high-throughput screen of multi-cell type tumor spheroids was designed to identify active combinations of DNA G-quadruplex stabilizer agents and targeted small molecules. Complex spheroids include a stromal component modeled by human endothelial cells (HUVEC) and fibroblasts modeled by human mesenchymal stem cells (MSCs). The concentration ranges selected for each drug and investigational agent were based upon clinically achievable concentrations if the clinical Cmax of the agent was known.
Compounds. The drugs and investigational agents: pidnarulex (CX-5461; NSC782164), APTO-253 (NSC789042), BRACO-19 (NSC847499), peposertib (NSC802822), ceralasertib (NSC780249), elimusertib (NSC800525), camonsertib (NSC841442), AZD-1390 (NSC803789), olaparib (NSC753686), talazoparib (NSC767125), ART-558 (NSC835418), sotorasib (NSC818433), MRTX-1133 (NSC836407), SN-38 (NSC673596), topotecan (NSC609699), etoposide (NSC141540), doxorubicin (NSC123127), gemcitabine (NSC613327), 5-fluorouracil (NSC19893), paclitaxel (NSC125973), vemurafenib (NSC761431), panobinostat (NSC761190), R-306465 (JNJ-16241199; NSC773264), adavosertib (NSC754352), TP-3654 (NSC805149), carboplatin (NSC241240), KSQ-4279 (NSC840948), and staurosporine (NSC755774) were obtained from the National Cancer Institute (NCI) Developmental Therapeutics Program Chemical Repository (34). The FDA-approved anticancer drug set is available from the NCI Developmental Therapeutics Program. […] The stock solutions were prepared in dimethyl sulfoxide (DMSO, Sigma-Aldrich, St. Louis, MO, cat. D2650) at 800-fold the tested concentration and stored at -70 degrees C prior to their use. All drugs and investigational agents were tested over a range starting from a high concentration at or near the clinical Cmax and decreasing in half-log increments. If the clinical Cmax for an agent had not been determined, the highest concentration tested was 10 microM.
2.3 Cell Culture. All cells were maintained in an incubator at 37 degrees C and 5% CO2 with 95% humidity. The PDC lines were cultured according to standard operating procedures established by the NCI PDMR. All PDCs were thawed and cultured in Matrigel-coated flasks prepared with a working solution of 1X Ham's F-12 nutrient mix, without supplementation (Invitrogen, cat. 11765054), 100 U/mL penicillin-streptomycin (Invitrogen, cat. 15140122), and 2.5% Matrigel (Corning Inc., cat. 354248) for the first three passages. The 857933-349-R-J2-PDC line was cultured in 6C/Colon 1B media, which includes advanced DMEM/F-12 (Thermo Fisher Scientific, cat. 12634028), 10 mM HEPES (Thermo Fisher Scientific, cat. 15630080), 1X GlutaMAX supplement (Thermo Fisher Scientific, cat. 35050061), 0.1 mg/mL primocin (InvivoGen, cat. ant-pm-2), 10% defined fetal bovine serum, heat inactivated (HyClone Laboratories Inc., cat. SH30070.03HI), 50% L-WRN conditioned media (ATCC, cat. CRL-3276), 1.25 mM N-Acetyl-L-cysteine (Sigma-Aldrich, cat. A9165), 10 mM nicotinamide (Sigma-Aldrich, cat. N0636), 1X B-27 supplement (Thermo Fisher Scientific, cat. 17504044), 1X N-2 supplement (Thermo Fisher Scientific, cat. 17502048), 10 microM Y-27632 dihydrochloride (Tocris Bioscience, cat. 1254), and 50 ng/mL human EGF recombinant protein (Thermo Fisher Scientific, cat. PHG0311). The 485176-168-R4-J1-PDC line was cultured in Panc media, which includes all 6C/Colon 1B media components plus 100 ng/mL human FGF-10 (Thermo Fisher Scientific, cat. 100-26), 500 nM SB-431542 (Selleckchem, cat. S1067), and gastrin (Tocris, cat. 3006).
[…]
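Also: spheroids exposed to the agents for seven days before readout.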
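For viability, T/C in this document: percent of vehicle control viability with DMSO wells as 100%.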

CC1COCCN1c1cc(-c2ccnn2C)c2ccnc(-c3ccn[nH]3)c2n1 (configuration not stated) + CN(C)c1ccc(Nc2c3ccc(NC(=O)CCN4CCCC4)cc3nc3cc(NC(=O)CCN4CCCC4)ccc23)cc1
IC50 (second compound 0.0316 µM): 804 nM
IC50 (second compound 0.1 µM): 500 nM
IC50 (second compound 0.316 µM): 725 nM
IC50 (second compound 1 µM): 1030 nM
IC50 (second compound 3.16 µM): 145 nM
IC50 (second compound 10 µM): < 31.6 nM
viability, T/C (second compound 0.0316 µM, first compound 0.0316 µM): 87%
viability, T/C (second compound 0.0316 µM, first compound 0.1 µM): 76%
viability, T/C (second compound 0.0316 µM, first compound 0.316 µM): 76.2%
viability, T/C (second compound 0.0316 µM, first compound 1 µM): 43.6%
viability, T/C (second compound 0.0316 µM, first compound 3.16 µM): 28.8%
viability, T/C (second compound 0.0316 µM, first compound 10 µM): 25.2%
viability, T/C (second compound 0.1 µM, first compound 0.0316 µM): 88.4%
viability, T/C (second compound 0.1 µM, first compound 0.1 µM): 85.9%
viability, T/C (second compound 0.1 µM, first compound 0.316 µM): 55.9%
viability, T/C (second compound 0.1 µM, first compound 1 µM): 38.5%
viability, T/C (second compound 0.1 µM, first compound 3.16 µM): 38.8%
viability, T/C (second compound 0.1 µM, first compound 10 µM): 23.1%
viability, T/C (second compound 0.316 µM, first compound 0.0316 µM): 71.8%
viability, T/C (second compound 0.316 µM, first compound 0.1 µM): 80.7%
viability, T/C (second compound 0.316 µM, first compound 0.316 µM): 60.4%
viability, T/C (second compound 0.316 µM, first compound 1 µM): 44.5%
viability, T/C (second compound 0.316 µM, first compound 3.16 µM): 32.8%
viability, T/C (second compound 0.316 µM, first compound 10 µM): 22.9%
viability, T/C (second compound 1 µM, first compound 0.0316 µM): 64.6%
viability, T/C (second compound 1 µM, first compound 0.1 µM): 69.5%
viability, T/C (second compound 1 µM, first compound 0.316 µM): 61.8%
viability, T/C (second compound 1 µM, first compound 1 µM): 48.2%
viability, T/C (second compound 1 µM, first compound 3.16 µM): 35%
viability, T/C (second compound 1 µM, first compound 10 µM): 17.2%
viability, T/C (second compound 3.16 µM, first compound 0.0316 µM): 89%
viability, T/C (second compound 3.16 µM, first compound 0.1 µM): 48.3%
viability, T/C (second compound 3.16 µM, first compound 0.316 µM): 41.5%
viability, T/C (second compound 3.16 µM, first compound 1 µM): 24.5%
viability, T/C (second compound 3.16 µM, first compound 3.16 µM): 16.4%
viability, T/C (second compound 3.16 µM, first compound 10 µM): 4.38%
viability, T/C (second compound 10 µM, first compound 0.0316 µM): 27.1%
viability, T/C (second compound 10 µM, first compound 0.1 µM): 22.1%
viability, T/C (second compound 10 µM, first compound 0.316 µM): 21.6%
viability, T/C (second compound 10 µM, first compound 1 µM): 14.1%
viability, T/C (second compound 10 µM, first compound 3.16 µM): 6.17%
viability, T/C (second compound 10 µM, first compound 10 µM): 1.51%
